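All cell lines were grown in 96-well plates and treated with compound for 48 hours. The concentration for 50% growth inhibition is given as GI50. TGI is the concentration that stops growth completely.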
Columns and labels:
Experiment in all cases: NCI-60 cell line screen, 48 h
786-0 renal = tested on: 786-0 renal
ACHN renal = tested on: ACHN renal
HCT-116 colon = tested on: HCT-116 colon
HOP-92 NSCLC = tested on: HOP-92 NSCLC
LOX IMVI melanoma = tested on: LOX IMVI melanoma
OVCAR-3 ovarian = tested on: OVCAR-3 ovarian
RPMI-8226 leukemia = tested on: RPMI-8226 leukemia
TK-10 renal = tested on: TK-10 renal
DU-145 prostate = tested on: DU-145 prostate
NCI/ADR-RES ovarian = tested on: NCI/ADR-RES ovarian

| SMILES | TGI (786-0 renal) | TGI (ACHN renal) | TGI (HCT-116 colon) | TGI (HOP-92 NSCLC) | TGI (LOX IMVI melanoma) | TGI (OVCAR-3 ovarian) | TGI (RPMI-8226 leukemia) | TGI (TK-10 renal) | TGI (DU-145 prostate) | TGI (NCI/ADR-RES ovarian) | GI50 (ACHN renal) | GI50 (HCT-116 colon) | GI50 (NCI/ADR-RES ovarian) | GI50 (OVCAR-3 ovarian) | GI50 (RPMI-8226 leukemia) | GI50 (TK-10 renal) |
| --- | --- | --- | --- | --- | --- | --- | --- | --- | --- | --- | --- | --- | --- | --- | --- | --- |
| N#Cc1ccccc1NC(=O)C(=O)C1NC(=S)NC1=O (stereo not drawn) | > 100 µM | > 100 µM | > 100 µM | > 100 µM | > 100 µM | > 100 µM | > 100 µM | > 100 µM |  |  |  |  |  |  |  |  |
| CCOc1cc2c(cc1O)C(O)C[C@@H]1[C@@H]2CC[C@]2(C)[C@@H](O)CC[C@@H]12 (stereo partly drawn) | > 83 µM | > 100 µM | > 100 µM | > 100 µM | > 100 µM | > 100 µM | > 34 µM | > 100 µM | > 74 µM | 4.04 µM |  |  |  |  |  |  |
| COC(=O)Cn1cnc2c(Cl)nc(Nc3ccccc3)nc21 | > 100 µM | > 100 µM | > 100 µM |  | 41.4 µM | 50.7 µM | > 100 µM | > 100 µM |  | > 100 µM |  |  |  |  |  |  |
| NC(=S)NC/C=C/Cl | > 100 µM | > 100 µM | > 100 µM | > 100 µM | > 100 µM | > 100 µM | > 100 µM | > 100 µM | > 100 µM | > 100 µM |  |  |  |  |  |  |
| Cc1ccccc1NC(=O)CC(=O)NNC(Sc1ccccc1)c1cc(N=Nc2ccc(Br)cc2)ccc1O (stereo not drawn) | > 10 µM | > 10 µM | 1.19 µM | > 10 µM | 9.11 µM | 4.91 µM | 9.06 µM | > 10 µM | > 10 µM | 9.08 µM |  |  |  |  |  |  |
| O=C1NC(Cc2ccc(O)cc2)C(=O)NC1Cc1ccc(O)cc1 (stereo not drawn) | > 100 µM | > 100 µM | > 100 µM | > 100 µM | > 100 µM | > 100 µM | > 100 µM | > 100 µM | > 100 µM | > 100 µM |  |  |  |  |  |  |
| O=c1c2ccccc2nc2ccc3c(Cl)[nH][nH]c3c12 | > 100 µM | > 100 µM | > 100 µM | > 100 µM | 58.3 µM | > 100 µM | > 100 µM | > 100 µM |  |  |  |  |  |  |  |  |
| CCN(CC)C(=O)Cn1c2c(c3ccccc31)CCCC2 | > 100 µM | > 100 µM | > 100 µM | > 100 µM | > 100 µM |  | > 100 µM | > 100 µM |  | > 100 µM |  |  |  |  |  |  |
| [N-]=[N+]=NCC(O)Cn1cnc2c(NC(=O)c3ccccc3)ncnc21 (stereo not drawn) | > 100 µM | > 100 µM | > 100 µM | > 100 µM | > 100 µM |  | > 100 µM | > 100 µM |  |  |  |  |  |  |  |  |
| Cc1ccc(S(=O)(=O)NC(=O)C2=C3SCCN3C(=O)N(S(=O)(=O)c3ccc(C)cc3)C2c2ccccc2)cc1 (stereo not drawn) | > 100 µM | > 100 µM | > 100 µM | > 100 µM | > 100 µM | 59.1 µM | 92.3 µM | > 100 µM | > 100 µM | > 100 µM |  |  |  |  |  |  |
| Cc1c2cccc-2ccc2c3ccccc3n(C(=O)c3ccc(Cl)cc3)c12 | > 100 µM | > 100 µM | > 100 µM | > 100 µM | > 100 µM | > 100 µM | > 100 µM | > 100 µM | > 100 µM | > 100 µM |  |  |  |  |  |  |
| CC(=O)OC[C@H]1On2nnnc2[C@H](OC(C)=O)[C@@H](OC(C)=O)[C@@H]1OC(C)=O | > 100 µM | > 100 µM | > 100 µM | > 100 µM | > 100 µM | > 100 µM | > 100 µM | > 100 µM | > 100 µM | > 100 µM |  |  |  |  |  |  |
| O=C(N=Nc1ccccc1Cl)NNc1ccccc1Cl | 34.4 µM | 92.6 µM | > 100 µM |  | 44.8 µM | 95.3 µM | 65.6 µM | > 100 µM | > 100 µM |  |  |  |  |  |  |  |
| CCN(CC)C(=O)CCN1CC1 | > 10 µM | > 10 µM | > 10 µM | > 10 µM | > 10 µM | > 10 µM | > 10 µM | > 10 µM | > 10 µM | > 10 µM |  |  |  |  |  |  |
| CCCCN(C)/N=N/c1nc[nH]c1C(N)=O |  |  | > 100 µM | > 100 µM | > 100 µM | > 100 µM | > 100 µM |  |  | > 100 µM |  |  |  |  |  |  |
| CC(C)Oc1cccc(N2C(Nc3ccccc3)=Nc3ccncc3S2(=O)=O)c1 | 52.5 µM | 84.8 µM | > 100 µM | 49 µM | 38.5 µM | 52.4 µM |  |  | > 100 µM | 53.3 µM |  |  |  |  |  |  |
| COc1ccc(C(=O)/C=C/c2cc(-c3cc(OC)c(OC)c(OC)c3)n[nH]2)cc1 |  | 3.63 µM | 5.86 µM |  |  | 3.56 µM | 2.49 µM | 5.77 µM |  | 9.85 µM | 1.96 µM | 1.73 µM | 2.76 µM | 1.74 µM | 0.433 µM | 2.22 µM |
| COc1ccc(Oc2ccccc2N)cc1 |  | > 100 µM | > 100 µM | > 100 µM | > 100 µM | > 100 µM | > 100 µM |  |  |  |  |  |  |  |  |  |
| Cn1c(=O)sc2cc(C(=S)N3CCCCC3)ccc21 | > 100 µM | > 100 µM | > 100 µM |  | > 100 µM | > 100 µM | > 100 µM | > 100 µM | > 100 µM | > 100 µM |  |  |  |  |  |  |
| S=C1SC(=Nc2ccccc2)C(=Nc2ccccc2)N1c1ccc2ccccc2c1 |  |  | > 100 µM |  |  | > 100 µM | > 100 µM |  | > 100 µM | > 100 µM |  |  |  |  |  |  |
| CCOC(=O)c1cc(Br)c(-c2onc(C)c2Br)[nH]1 | 59.3 µM |  | > 100 µM | > 100 µM | > 100 µM | > 100 µM | > 100 µM |  | > 100 µM | > 100 µM |  |  |  |  |  |  |
| COc1nc(C#CC2CCCCC2)nc(OC)n1 | 7.77 µM | 17.5 µM | 10.2 µM |  | 8.69 µM | 8.97 µM | 6.53 µM |  | 14.6 µM | 4.59 µM |  |  |  |  |  |  |
| CCCCCCCCOc1ccc(/C=C/C2=[N+](CCO)CCO2)cc1 | 13.7 µM | 13 µM | 10.2 µM | 6.51 µM |  | 28 µM | 5.02 µM | 17.3 µM | 16.4 µM | 29.4 µM |  |  |  |  |  |  |

Reference: PubChem BioAssay (NCI)
